According to patent US10131652B2, “Pyrimidinyloxy benzene derivatives as herbicides” (E. I. DU PONT DE NEMOURS AND COMPANY, priority 2014, dated 2018):

Assays:
Assay type in all cases: in vivo
[1] = test system: Italian ryegrass (Lolium multiflorum); test: Test B pre-/postemergence plant response
Summary of the method: (§1)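 Evaluation is visual, about 10 days after application, rating injury from 0 (none) to 100 (complete control) relative to untreated controls. Application was a preemergence soil spray on seeded pots or a postemergence spray on one- to two-leaf plants.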

[2] = test system: ragweed (common ragweed, Ambrosia elatior); test: Test B pre-/postemergence plant response
Summary of the method: as §1

kochia (Kochia scoparia) = test: Test B pre-/postemergence plant response
Summary of the method: as §1

[3] = test system: Italian ryegrass (Lolium multiflorum); test: Test D pre-/postemergence plant response
Summary of the method: (§2)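 Two application timings were run together: preemergence onto seeded loam–sand pots, and postemergence onto 1- to 4-leaf plants (2 to 18 cm) in peat/vermiculite medium with starter nutrients. Formulation was a non-phytotoxic solvent with surfactant. Ratings, 0 to 100, were made visually versus controls after 13 to 15 greenhouse days.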

[4] = test system: morningglory (Ipomoea coccinea); test: Test D pre-/postemergence plant response
Summary of the method: as §2

[5] = test system: pigweed (Amaranthus retroflexus); test: Test D pre-/postemergence plant response
Summary of the method: as §2

corn (Zea mays) = test: Test D pre-/postemergence plant response
Summary of the method: as §2

[6] = test system: barnyardgrass (Echinochloa crus-galli); test: Test D pre-/postemergence plant response
Summary of the method: as §2

[7] = test system: blackgrass (Alopecurus myosuroides); test: Test D pre-/postemergence plant response
Summary of the method: as §2

[8] = test system: large (Lg) crabgrass (Digitaria sanguinalis); test: Test D pre-/postemergence plant response
Summary of the method: as §2

[9] = test system: giant foxtail (Setaria faberii); test: Test D pre-/postemergence plant response
Summary of the method: as §2

[10] = test system: lambsquarters (Chenopodium album); test: Test D pre-/postemergence plant response
Summary of the method: as §2

soybean (Glycine max) = test: Test D pre-/postemergence plant response
Summary of the method: as §2

[11] = test system: velvetleaf (Abutilon theophrasti); test: Test D pre-/postemergence plant response
Summary of the method: as §2

[12] = test system: waterhemp (common waterhemp, Amaranthus rudis); test: Test D pre-/postemergence plant response
Summary of the method: as §2

[13] = 31 g ai/ha, Preemergence, 0 to 100 scale where 0 is no effect and 100 is complete control
[14] = 125 g ai/ha, postemergence, 0 to 100 scale, 0 no effect, 100 complete control
[15] = Postemergence, 31 g ai/ha, 0 to 100 scale (0 no effect, 100 complete control)
[16] = Preemergence, 125 g ai/ha, 0 to 100 scale (0 no effect, 100 complete control)
[17] = Postemergence, 31 g ai/ha, scale 0 to 100 (0 no effect, 100 complete control)
[18] = Postemergence, 62 g ai/ha, scale 0 to 100, 0 no effect, 100 complete control
[19] = Postemergence, 125 g ai/ha, scale 0 to 100, 0 no effect, 100 complete control
[20] = Preemergence, 16 g ai/ha, scale 0 to 100 (0 no effect, 100 complete control)
[21] = Preemergence, 31 g ai/ha, scale 0 to 100 (0 no effect, 100 complete control)
[22] = Preemergence, 62 g ai/ha, scale 0 to 100 (0 no effect, 100 complete control)

Cc1cc(-c2c(F)cccc2Oc2ncc(Cl)cn2)on1 [Compound 229]
Plant response rating, Ryegrass, Italian [1, 13]: 0 | Plant response rating, Ryegrass, Italian [1, 14]: 20 | Plant response rating, Ryegrass, Italian [1, 15]: 0 | Ryegrass, Italian plant response rating [1, 16]: 30 | Plant response rating, Ragweed [2, 13]: 70 | Plant response rating, Ragweed [2, 14]: 100 | Plant response rating, Ragweed [2, 15]: 100 | Ragweed plant response rating [2, 16]: 90 | Plant response rating, Kochia (kochia (Kochia scoparia); [13]): 80 | Plant response rating, Kochia (kochia (Kochia scoparia); [14]): 100 | Plant response rating, Kochia (kochia (Kochia scoparia); [15]): 90 | Kochia plant response rating (kochia (Kochia scoparia); [16]): 100 | Plant response rating (scale 0 to 100), Ryegrass, Italian ([3]; Postemergence, 16 g ai/ha): 0 | Ryegrass, Italian plant response rating [3, 17]: 0 | Ryegrass, Italian plant response rating [3, 18]: 0 | Plant response rating, Ryegrass, Italian [3, 19]: 5 | Plant response rating (scale 0 to 100), Ryegrass, Italian ([3]; Preemergence, 125 g ai/ha): 60 | Plant response rating, Ryegrass, Italian [3, 20]: 0 | Plant response rating, Ryegrass, Italian [3, 21]: 20 | Plant response rating, Ryegrass, Italian [3, 22]: 20 | Plant response rating (scale 0 to 100), Morningglory ([4]; Postemergence, 16 g ai/ha): 40 | Morningglory plant response rating [4, 17]: 25 | Morningglory plant response rating [4, 18]: 25 | Plant response rating, Morningglory [4, 19]: 35 | Plant response rating (scale 0 to 100), Morningglory ([4]; Preemergence, 125 g ai/ha): 45 | Plant response rating, Morningglory [4, 20]: 0 | Plant response rating, Morningglory [4, 21]: 0 | Plant response rating, Morningglory [4, 22]: 35 | Plant response rating (scale 0 to 100), Pigweed ([5]; Postemergence, 16 g ai/ha): 55 | Pigweed plant response rating [5, 17]: 60 | Pigweed plant response rating [5, 18]: 70 | Plant response rating, Pigweed [5, 19]: 80 | Plant response rating (scale 0 to 100), Pigweed ([5]; Preemergence, 125 g ai/ha): 100 | Plant response rating, Pigweed [5, 20]: 100 | Plant response rating, Pigweed [5, 21]: 100 | Plant response rating, Pigweed [5, 22]: 100 | Plant response rating (scale 0 to 100), Corn (corn (Zea mays); Postemergence, 16 g ai/ha): 5 | Corn plant response rating (corn (Zea mays); [17]): 20 | Plant response rating, Corn (corn (Zea mays); [18]): 5 | Plant response rating, Corn (corn (Zea mays); [19]): 5 | Plant response rating (scale 0 to 100), Corn (corn (Zea mays); Preemergence, 125 g ai/ha): 40 | Plant response rating, Corn (corn (Zea mays); [20]): 0 | Plant response rating, Corn (corn (Zea mays); [21]): 5 | Plant response rating, Corn (corn (Zea mays); [22]): 5 | Plant response rating (scale 0 to 100), Barnyardgrass ([6]; Postemergence, 16 g ai/ha): 5 | Barnyardgrass plant response rating [6, 17]: 5 | Plant response rating, Barnyardgrass [6, 18]: 5 | Plant response rating, Barnyardgrass [6, 19]: 10 | Plant response rating (scale 0 to 100), Barnyardgrass ([6]; Preemergence, 125 g ai/ha): 100 | Plant response rating, Barnyardgrass [6, 20]: 15 | Plant response rating, Barnyardgrass [6, 21]: 55 | Plant response rating, Barnyardgrass [6, 22]: 65 | Plant response rating (scale 0 to 100), Blackgrass ([7]; Postemergence, 16 g ai/ha): 0 | Blackgrass plant response rating [7, 17]: 10 | Plant response rating, Blackgrass [7, 18]: 15 | Plant response rating, Blackgrass [7, 19]: 10 | Plant response rating (scale 0 to 100), Blackgrass ([7]; Preemergence, 125 g ai/ha): 85 | Plant response rating, Blackgrass [7, 20]: 15 | Plant response rating, Blackgrass [7, 21]: 15 | Plant response rating, Blackgrass [7, 22]: 70 | Plant response rating (scale 0 to 100), Crabgrass, Large ([8]; Postemergence, 16 g ai/ha): 0 | Crabgrass, Large plant response rating [8, 17]: 0 | Plant response rating, Crabgrass, Large [8, 18]: 5 | Plant response rating, Crabgrass, Large [8, 19]: 5 | Plant response rating (scale 0 to 100), Crabgrass, Large ([8]; Preemergence, 125 g ai/ha): 100 | Plant response rating, Crabgrass, Large [8, 20]: 75 | Plant response rating, Crabgrass, Large [8, 21]: 85 | Plant response rating, Crabgrass, Large [8, 22]: 100 | Plant response rating (scale 0 to 100), Foxtail, Giant ([9]; Postemergence, 16 g ai/ha): 0 | Foxtail, Giant plant response rating [9, 17]: 5 | Plant response rating, Foxtail, Giant [9, 18]: 5 | Plant response rating, Foxtail, Giant [9, 19]: 15 | Plant response rating (scale 0 to 100), Foxtail, Giant ([9]; Preemergence, 125 g ai/ha): 98 | Plant response rating, Foxtail, Giant [9, 20]: 5 | Plant response rating, Foxtail, Giant [9, 21]: 70 | Plant response rating, Foxtail, Giant [9, 22]: 90 | Plant response rating (scale 0 to 100), Lambsquarters ([10]; Postemergence, 16 g ai/ha): 60 | Lambsquarters plant response rating [10, 17]: 70 | Lambsquarters plant response rating [10, 18]: 70 | Plant response rating, Lambsquarters [10, 19]: 85 | Plant response rating (scale 0 to 100), Lambsquarters ([10]; Preemergence, 125 g ai/ha): 95 | Plant response rating, Lambsquarters [10, 20]: 35 | Plant response rating, Lambsquarters [10, 21]: 80 | Plant response rating, Lambsquarters [10, 22]: 80 | Plant response rating (scale 0 to 100), Soybean (soybean (Glycine max); Postemergence, 16 g ai/ha): 20 | Soybean plant response rating (soybean (Glycine max); [17]): 40 | Soybean plant response rating (soybean (Glycine max); [18]): 45 | Plant response rating, Soybean (soybean (Glycine max); [19]): 70 | Plant response rating (scale 0 to 100), Soybean (soybean (Glycine max); Preemergence, 125 g ai/ha): 95 | Plant response rating, Soybean (soybean (Glycine max); [20]): 5 | Plant response rating, Soybean (soybean (Glycine max); [21]): 35 | Plant response rating, Soybean (soybean (Glycine max); [22]): 60 | Plant response rating (scale 0 to 100), Velvetleaf ([11]; Postemergence, 16 g ai/ha): 15 | Velvetleaf plant response rating [11, 17]: 60 | Velvetleaf plant response rating [11, 18]: 45 | Plant response rating, Velvetleaf [11, 19]: 70 | Plant response rating (scale 0 to 100), Velvetleaf ([11]; Preemergence, 125 g ai/ha): 100 | Plant response rating, Velvetleaf [11, 20]: 70 | Plant response rating, Velvetleaf [11, 21]: 90 | Plant response rating, Velvetleaf [11, 22]: 100 | Plant response rating (scale 0 to 100), Waterhemp ([12]; Postemergence, 16 g ai/ha): 60 | Waterhemp plant response rating [12, 17]: 70 | Waterhemp plant response rating [12, 18]: 80 | Plant response rating, Waterhemp [12, 19]: 85 | Plant response rating (scale 0 to 100), Waterhemp ([12]; Preemergence, 125 g ai/ha): 98 | Plant response rating, Waterhemp [12, 20]: 95 | Plant response rating, Waterhemp [12, 21]: 100 | Plant response rating, Waterhemp [12, 22]: 98
